{"source": "PubChem BioAssay AID1259407", "about": "(Chemical Carcinogenesis Research Information System (CCRIS), 2018)", "system": "CCRIS mutagenicity, Ames/micronucleus/aberration tests", "assay": "CCRIS mutagenicity studies", "key": {"[1]": {"details": "Test System: AMES SALMONELLA TYPHIMURIUM, Strain/Indicator: TA98, Metabolic Activation: NONE, Method: PREINCUBATION"}, "[2]": {"details": "Test System: AMES SALMONELLA TYPHIMURIUM, Strain/Indicator: TA100, Metabolic Activation: NONE, Method: PREINCUBATION"}, "[3]": {"details": "Test System: AMES SALMONELLA TYPHIMURIUM, Strain/Indicator: TA100, Metabolic Activation: NONE, Method: STANDARD PLATE"}}, "note": "Active and inactive are the calls of the source. How the calls were made is not given here."}
{"smiles": "Nc1cc([N+](=O)[O-])ccc1-c1ccc([N+](=O)[O-])cc1", "values": [{"measurement": "mutagenic call", "setting": "[1]", "result": "active; positive"}, {"measurement": "mutagenic call", "setting": "Test System: AMES SALMONELLA TYPHIMURIUM, Strain/Indicator: TA98, Metabolic Activation: RAT LIVER S-9, AROCLOR 1254, Method: PREINCUBATION", "result": "active; positive"}, {"measurement": "mutagenic call", "setting": "[2]", "result": "active; positive"}, {"measurement": "mutagenic call", "setting": "[3]", "result": "active; positive"}, {"measurement": "mutagenic call", "setting": "Test System: AMES SALMONELLA TYPHIMURIUM, Strain/Indicator: TA100, Metabolic Activation: RAT LIVER S-9, AROCLOR 1254, Method: PREINCUBATION", "result": "active; positive"}, {"measurement": "mutagenic call", "setting": "Test System: AMES SALMONELLA TYPHIMURIUM, Strain/Indicator: TA104, Metabolic Activation: NONE, Method: STANDARD PLATE", "result": "active; positive"}, {"measurement": "mutagenic call", "setting": "Test System: AMES SALMONELLA TYPHIMURIUM, Strain/Indicator: TA4001, Metabolic Activation: NONE, Method: STANDARD PLATE", "result": "inactive; negative"}, {"measurement": "mutagenic call", "setting": "Test System: AMES SALMONELLA TYPHIMURIUM, Strain/Indicator: TA4006, Metabolic Activation: NONE, Method: STANDARD PLATE", "result": "active; positive"}, {"measurement": "mutagenic call", "setting": "Test System: AMES SALMONELLA TYPHIMURIUM, Strain/Indicator: TA7002, Metabolic Activation: NONE, Method: STANDARD PLATE", "result": "active; positive"}, {"measurement": "mutagenic call", "setting": "Test System: AMES SALMONELLA TYPHIMURIUM, Strain/Indicator: TA7002, Metabolic Activation: RAT LIVER S-9, AROCLOR 1254, Method: STANDARD PLATE", "result": "active; positive"}, {"measurement": "mutagenic call", "setting": "Test System: AMES SALMONELLA TYPHIMURIUM, Strain/Indicator: TA7003, Metabolic Activation: NONE, Method: STANDARD PLATE", "result": "active; positive"}, {"measurement": "mutagenic call", "setting": "Test System: AMES SALMONELLA TYPHIMURIUM, Strain/Indicator: TA7003, Metabolic Activation: RAT LIVER S-9, AROCLOR 1254, Method: STANDARD PLATE", "result": "active; positive"}, {"measurement": "mutagenic call", "setting": "Test System: AMES SALMONELLA TYPHIMURIUM, Strain/Indicator: TA7004, Metabolic Activation: NONE, Method: STANDARD PLATE", "result": "active; positive"}, {"measurement": "mutagenic call", "setting": "Test System: AMES SALMONELLA TYPHIMURIUM, Strain/Indicator: TA7004, Metabolic Activation: RAT LIVER S-9, AROCLOR 1254, Method: STANDARD PLATE", "result": "active; positive"}, {"measurement": "mutagenic call", "setting": "Test System: AMES SALMONELLA TYPHIMURIUM, Strain/Indicator: TA7005, Metabolic Activation: NONE, Method: STANDARD PLATE", "result": "active; positive"}, {"measurement": "mutagenic call", "setting": "Test System: AMES SALMONELLA TYPHIMURIUM, Strain/Indicator: TA7005, Metabolic Activation: RAT LIVER S-9, AROCLOR 1254, Method: STANDARD PLATE", "result": "active; positive"}, {"measurement": "mutagenic call", "setting": "Test System: AMES SALMONELLA TYPHIMURIUM, Strain/Indicator: TA7006, Metabolic Activation: NONE, Method: STANDARD PLATE", "result": "active; positive"}, {"measurement": "mutagenic call", "setting": "Test System: AMES SALMONELLA TYPHIMURIUM, Strain/Indicator: TA7006, Metabolic Activation: RAT LIVER S-9, AROCLOR 1254, Method: STANDARD PLATE", "result": "active; positive"}, {"measurement": "mutagenic call", "setting": "Test System: Ames Salmonella typhimurium, Strain/Indicator: TA102, Metabolic Activation: None, Method: Preincubation", "result": "active; positive"}, {"measurement": "mutagenic call", "setting": "Test System: Ames Salmonella typhimurium, Strain/Indicator: TA102, Metabolic Activation: Rat, liver, S-9, Aroclor 1254 (4%), Method: Preincubation", "result": "inactive; negative"}]}
{"smiles": "C=C(C)C(=O)OCCCCCCCC", "values": [{"measurement": "mutagenic call", "setting": "Test System: AMES SALMONELLA TYPHIMURIUM, Strain/Indicator: TA97, Metabolic Activation: HAMSTER, LIVER, S-9, AROCLOR 1254 (10 OR 30%), Method: PREINCUBATION", "result": "inactive; negative"}, {"measurement": "mutagenic call", "setting": "Test System: AMES SALMONELLA TYPHIMURIUM, Strain/Indicator: TA97, Metabolic Activation: NONE, Method: PREINCUBATION", "result": "inactive; negative"}, {"measurement": "mutagenic call", "setting": "Test System: AMES SALMONELLA TYPHIMURIUM, Strain/Indicator: TA97, Metabolic Activation: RAT, LIVER, S-9, AROCLOR 1254 (10 OR 30%), Method: PREINCUBATION", "result": "inactive; negative"}, {"measurement": "mutagenic call", "setting": "Test System: AMES SALMONELLA TYPHIMURIUM, Strain/Indicator: TA98, Metabolic Activation: HAMSTER, LIVER, S-9, AROCLOR 1254 (10%), Method: PREINCUBATION", "result": "inactive; negative"}, {"measurement": "mutagenic call", "setting": "Test System: AMES SALMONELLA TYPHIMURIUM, Strain/Indicator: TA98, Metabolic Activation: HAMSTER, LIVER, S-9, AROCLOR 1254 (30%), Method: PREINCUBATION", "result": "inactive; negative"}, {"measurement": "mutagenic call", "setting": "[1]", "result": "inactive; negative"}, {"measurement": "mutagenic call", "setting": "Test System: AMES SALMONELLA TYPHIMURIUM, Strain/Indicator: TA98, Metabolic Activation: RAT, LIVER, S-9, AROCLOR 1254 (10%), Method: PREINCUBATION", "result": "inactive; negative"}, {"measurement": "mutagenic call", "setting": "Test System: AMES SALMONELLA TYPHIMURIUM, Strain/Indicator: TA98, Metabolic Activation: RAT, LIVER, S-9, AROCLOR 1254 (30%), Method: PREINCUBATION", "result": "inactive; negative"}, {"measurement": "mutagenic call", "setting": "Test System: AMES SALMONELLA TYPHIMURIUM, Strain/Indicator: TA100, Metabolic Activation: HAMSTER, LIVER, S-9, AROCLOR 1254 (10 OR 30%), Method: PREINCUBATION", "result": "inactive; negative"}, {"measurement": "mutagenic call", "setting": "[2]", "result": "inactive; negative"}, {"measurement": "mutagenic call", "setting": "Test System: AMES SALMONELLA TYPHIMURIUM, Strain/Indicator: TA100, Metabolic Activation: RAT, LIVER, S-9, AROCLOR 1254 (10 OR 30%), Method: PREINCUBATION", "result": "inactive; negative"}, {"measurement": "mutagenic call", "setting": "Test System: AMES SALMONELLA TYPHIMURIUM, Strain/Indicator: TA1535, Metabolic Activation: HAMSTER, LIVER, AROCLOR 1254 (10 OR 30%), Method: PREINCUBATION", "result": "inactive; negative"}, {"measurement": "mutagenic call", "setting": "Test System: AMES SALMONELLA TYPHIMURIUM, Strain/Indicator: TA1535, Metabolic Activation: NONE, Method: PREINCUBATION", "result": "inactive; negative"}, {"measurement": "mutagenic call", "setting": "Test System: AMES SALMONELLA TYPHIMURIUM, Strain/Indicator: TA1535, Metabolic Activation: RAT, LIVER, S-9, AROCLOR 1254 (10 OR 30%), Method: PREINCUBATION", "result": "inactive; negative"}, {"measurement": "mutagenic call", "setting": "Test System: AMES SALMONELLA TYPHIMURIUM, Strain/Indicator: TA1537, Metabolic Activation: HAMSTER, LIVER, S-9, AROCLOR 1254 (10%), Method: PREINCUBATION", "result": "inactive; negative"}, {"measurement": "mutagenic call", "setting": "Test System: AMES SALMONELLA TYPHIMURIUM, Strain/Indicator: TA1537, Metabolic Activation: NONE, Method: PREINCUBATION", "result": "inactive; negative"}, {"measurement": "mutagenic call", "setting": "Test System: AMES SALMONELLA TYPHIMURIUM, Strain/Indicator: TA1537, Metabolic Activation: RAT, LIVER, S-9, AROCLOR 1254 (10%), Method: PREINCUBATION", "result": "inactive; negative"}]}
{"smiles": "Cc1cccc2cccc([N+](=O)[O-])c12", "values": [{"measurement": "mutagenic call", "setting": "[1]", "result": "active; positive"}]}
{"smiles": "CC(C)CN(N=O)C(N)=O", "values": [{"measurement": "mutagenic call", "setting": "Test System: E. COLI B, Strain/Indicator: H/R30R, Metabolic Activation: NONE", "result": "active; positive"}, {"measurement": "mutagenic call", "setting": "Test System: E. COLI B, Strain/Indicator: HS30R, Metabolic Activation: NONE", "result": "active; positive"}]}
{"smiles": "CN1CCN=N1", "values": [{"measurement": "mutagenic call", "setting": "Test System: AMES SALMONELLA TYPHIMURIUM, Strain/Indicator: TA1535, Metabolic Activation: NONE, Method: STANDARD PLATE", "result": "active; positive"}]}
{"smiles": "CC(=O)OCc1ccc2ccc3cccc4ccc1c2c34", "values": [{"measurement": "mutagenic call", "setting": "[1]", "result": "active; positive"}]}
{"smiles": "O=Cc1ccccc1O", "values": [{"measurement": "mutagenic call", "setting": "Test System: AMES SALMONELLA TYPHIMURIUM, Strain/Indicator: TA98, Metabolic Activation: NONE, Method: STANDARD PLATE", "result": "inactive; negative"}, {"measurement": "mutagenic call", "setting": "Test System: AMES SALMONELLA TYPHIMURIUM, Strain/Indicator: TA98, Metabolic Activation: S-9, Method: STANDARD PLATE", "result": "inactive; negative"}, {"measurement": "mutagenic call", "setting": "[3]", "result": "inactive; negative"}, {"measurement": "mutagenic call", "setting": "Test System: AMES SALMONELLA TYPHIMURIUM, Strain/Indicator: TA100, Metabolic Activation: S-9, Method: STANDARD PLATE", "result": "inactive; negative"}]}
{"smiles": "c1ccc(-c2ccncc2)nc1", "values": [{"measurement": "mutagenic call", "setting": "Test System: AMES SALMONELLA TYPHIMURIUM, Strain/Indicator: TA97, Metabolic Activation: RAT, LIVER, S-9, PHENOBARBITAL, Method: STANDARD PLATE", "result": "inactive; negative"}, {"measurement": "mutagenic call", "setting": "Test System: AMES SALMONELLA TYPHIMURIUM, Strain/Indicator: TA98, Metabolic Activation: RAT, LIVER, S-9, PHENOBARBITAL, Method: STANDARD PLATE", "result": "active; positive"}, {"measurement": "mutagenic call", "setting": "Test System: AMES SALMONELLA TYPHIMURIUM, Strain/Indicator: TA100, Metabolic Activation: RAT, LIVER, S-9, PHENOBARBITAL, Method: STANDARD PLATE", "result": "inactive; negative"}, {"measurement": "mutagenic call", "setting": "Test System: AMES SALMONELLA TYPHIMURIUM, Strain/Indicator: TA1535, Metabolic Activation: RAT, LIVER, S-9, PHENOBARBITAL, Method: STANDARD PLATE", "result": "inactive; negative"}, {"measurement": "mutagenic call", "setting": "Test System: AMES SALMONELLA TYPHIMURIUM, Strain/Indicator: TA1537, Metabolic Activation: RAT, LIVER, S-9, PHENOBARBITAL, Method: STANDARD PLATE", "result": "active; positive"}, {"measurement": "mutagenic call", "setting": "Test System: AMES SALMONELLA TYPHIMURIUM, Strain/Indicator: TA1538, Metabolic Activation: RAT, LIVER, S-9, PHENOBARBITAL, Method: STANDARD PLATE", "result": "inactive; negative"}]}
